Results reported in patent US20020010182A1, “Piperazine derivatives as tachykinin antagonists” (FUJISAWA PHARMACEUTICAL CO., LTD., priority 1995, published 2002).
Where a name gives a salt, the structure may show the parent alone.

Assays:
h-NK1 receptors = molecular target: T1, h-NK1 receptors (Homo sapiens, UniProt P25103); experiment: Evaluation of NK1 antagonist transport efficiency to the central nervous system using a h-NK1 receptor binding assay; conditions: 5 min, brain extract of male SD rats 5 min after i.v. injection of test compound, CHO cell membranes expressing h-NK1, read-out: inhibition rate of 125I-BH-Substance P binding to h-NK1 receptors
T1 construct: expressed in transfected cells; host or cells: CHO cells (permanent expression), crude cell membranes
Method: A. Evaluation of NK1 Antagonist Transport Efficiency to the Cental Nervous System Using a h-NK1 Receptor Binding Assay
(1) Administration of Test Compound and Extraction of the Compound From Brain
Male SD rats were given an i.v. injection of a solution containing a test compound (1 mg/kg). 5 Min later the animals were anesthetized by ether, bled and perfused through the aorta ascendens with 20 ml of saline. The brain was rapidly removed, weighed and homogenized in 4 vol. ice-cold distilled water by using Polytoron (KINEMATICA). To extract the test compound, 500 μl of the homogenate, 100 μl of methanol, 500 μl of 0.1 N NaOH and 4 ml of ethyl acetate were mixed by shaking for 10 min at room temperature. The organic phase (2.5 ml) was recovered by centrifugation at 3,000 rpm for 10 min, dried and dissolved in dimethyl sulfoxide.
(2) h-NK1 Receptor Binding Assay
(a) Crude CHO Cell Membrane Preparation
CHO cells permanently expressing h-NK1 receptors were harvested and homogenized with a Dounce homogenizer at 4° C. in a buffer (0.25 M sucrose, 25 mM Tris-HCl (pH 7.4), 10 mM MgCl2, 1 mM EDTA, 5 μg/ml p-APMSF). The homogenate was centrifuged (500×g, 10 min), and the pellet was resuspended in the same buffer, homogenized, and centrifuged. The two supernatants were combined and centrifuged (100,000×g, 1 hour). The crude cell membranes thus isolated were resuspended in a buffer (25 MM Tris-HCl (pH 7.4), 10 mM MgCl2, 1 mM EDTA, 5 μg/ml p-APMSF) and stored at −80° C. until use.
(b) ^125I-BH-Substance P Binding to the Prepared Membrane
Cell membranes (6 μg/ml) were incubated with ^125I-BH-Substance P (0.1 nM) with or without the extracted compounds in 0.25 ml of a medium (50 mM Tris-HCl (pH 7.4), 5 mM MnCl2, 20 μg/ml chymrostatin, 40 μg/ml bacitracin, 4 μg/ml leupeptin, 5 μg/ml p-APMSF, 200 μg/ml BSA) at 22° C. for 90 min. At the end of the incubation period, the contents were quickly filtered through a Blue Mat 11740 filter (pretreated with 0.1% polyethylenimine for 3 hours prior to use) by using SKATRON Cell Harvester. The filter was then washed with a washing buffer (50 mM Tris-HCl (pH 7.4), 5 mM MnCl2) . The radioactivity was counted by using an auto gamma counter (Packard RIASTAR 5420A). All data presented are specific binding defined as that displaceable by 3 μM unlabeled Substance P.

T1 sequence (P25103 whole entry): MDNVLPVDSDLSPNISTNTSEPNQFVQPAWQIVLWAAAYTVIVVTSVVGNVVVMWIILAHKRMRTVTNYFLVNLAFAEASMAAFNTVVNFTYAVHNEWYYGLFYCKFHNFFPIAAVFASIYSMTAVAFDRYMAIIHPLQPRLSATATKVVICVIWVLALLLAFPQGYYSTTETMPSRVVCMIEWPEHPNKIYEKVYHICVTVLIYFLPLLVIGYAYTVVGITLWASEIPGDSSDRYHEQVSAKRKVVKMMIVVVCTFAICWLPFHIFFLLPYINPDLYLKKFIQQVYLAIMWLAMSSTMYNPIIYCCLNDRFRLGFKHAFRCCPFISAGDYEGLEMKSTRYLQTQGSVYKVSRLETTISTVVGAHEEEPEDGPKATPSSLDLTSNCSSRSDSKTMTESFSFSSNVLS

Cc1ccc(C[C@@H]2CN(CC#CCN3CCOCC3)CCN2C(=O)c2cc(C(F)(F)F)cc(C(F)(F)F)c2)cc1C.Cl.Cl [37-(2), (2R)-4-(4-Morpholino-2-butynyl)-1-[3,5-bis (trifluoromethyl)benzoyl]-2-(3,4-dimethylbenzyl) piperazine dihydrochloride]
melting point: 155 to 162 °C | inhibition at 1 mg/kg (h-NK1 receptors): > 80%

Cc1ccc(C[C@@H]2CN(CCCN3CCOCC3)CCN2C(=O)c2cc(C(F)(F)F)cc(C(F)(F)F)c2)cc1C.Cl.Cl [53-(1), (2R)-1-[3,5-Bis(trifluoromethyl)benzoyl]-2-(3,4-dimethylbenzyl)-4-(3-morpholinopropyl) piperazine dihydrochloride]
melting point: 220 to 230 °C | inhibition at 1 mg/kg (h-NK1 receptors): > 80%

COCC1CN(CC#CCN2CCN(C(=O)c3cc(C(F)(F)F)cc(C(F)(F)F)c3)[C@H](Cc3ccc(C)c(C)c3)C2)CCO1.Cl.Cl (stereo partly drawn) [59-(1), (2R)-1-[3,5-Bis(trifluoromethyl)benzoyl]-2-(3,4-dimethylbenzyl)-4-[4-(2-methoxymethylmorpholino)-2-butynyl]piperazine dihydrochloride]
melting point: 150 to 165 °C | inhibition at 1 mg/kg (h-NK1 receptors): > 80%

O=C(c1cc(C(F)(F)F)cc(C(F)(F)F)c1)N1CCN(CCCNN2CCOCC2)C[C@H]1Cc1ccc2ccccc2c1 [82-(9), (2R)-1-[3,5-Bis(trifluoromethyl)benzoyl]-2-(2-naphthylmethyl)-4-(N-morpholino-3-aminopropyl) piperazine dihydrochloride]
inhibition at 1 mg/kg (h-NK1 receptors): > 80%

O=C(c1cc(C(F)(F)F)cc(C(F)(F)F)c1)N1CCN(C/C=C/CNCc2cccnc2)C[C@H]1Cc1ccc2ccccc2c1 [82-(10), (2R)-1-[3,5-Bis(trifluoromethyl)benzoyl]-2-(2-naphthylmethyl)-4-[(E)-N-(3-pyridylmethyl)-4-amino-2-butenyl]piperazine trihydrochloride]
inhibition at 1 mg/kg (h-NK1 receptors): > 80%

O=C(c1cc(C(F)(F)F)cc(C(F)(F)F)c1)N1CCN(CCCNCc2cccnc2)C[C@H]1Cc1ccc2ccccc2c1 [82-(12), (2R)-1-[3,5-Bis(trifluoromethyl)benzoyl]-2-(2-naphthylmethyl)-4-[N-(3-pyridylmethyl)-3-aminopropyl]piperazine trihydrochloride]
inhibition at 1 mg/kg (h-NK1 receptors): > 80%

CC(=O)c1ccc(C(=O)N2CCN(C(=O)c3cc(C(F)(F)F)cc(C(F)(F)F)c3)[C@H](Cc3ccc(C)c(C)c3)C2)cc1 [Example 11, (2R)-4-(4-acetylbenzoyl)-1-[3,5-bis (trifluoromethyl)benzoyl]-2-(3,4-dimethylbenzyl)piperazine]
inhibition at 1 mg/kg (h-NK1 receptors): > 80%

O=C(c1cc(C(F)(F)F)cc(C(F)(F)F)c1)N1CCN(CCCN2CCc3sccc3C2)C[C@H]1Cc1c[nH]c2ccccc12 [Example 26, (2R)-1-[3,5-Bis(trifluoromethyl)benzoyl]-2-(1H-indol-3-ylmethyl)-4-[3-(4,5,6,7-tetrahydrothieno[3,2-c]pyridin-5-yl)propyl]piperazine]
inhibition at 1 mg/kg (h-NK1 receptors): > 80%

O=C(c1cc(C(F)(F)F)cc(C(F)(F)F)c1)N1CCN(CC#CCN2CCOCC2)C[C@H]1Cc1ccc2ccccc2c1 [Example 35, (2R)-1-[3,5-bis(trifluoromethyl)benzoyl]-4-(4-morpholino-2-butynyl)-2-(2-naphthylmethyl) piperazine dihydrochloride]
inhibition at 1 mg/kg (h-NK1 receptors): > 80%

O=C(c1cc(C(F)(F)F)cc(C(F)(F)F)c1)N1CCN(CC#CCN2CCOCC2)C[C@H]1Cc1ccc(Cl)c(Cl)c1 [Example 36, (2R)-1-[3,5-bis(trifluoromethyl)benzoyl]-2-(3,4-dichlorobenzyl)-4-(4-morpholino-2-butynyl) piperazine]
inhibition at 1 mg/kg (h-NK1 receptors): > 80%

O=C(c1cc(C(F)(F)F)cc(C(F)(F)F)c1)N1CCN(CCN2CCSCC2)C[C@H]1Cc1ccc2ccccc2c1 [Example 44-(2), (2R)-1-[3,5-Bis(trifluoromethyl)benzoyl]-2-(2-naphthylmethyl)-4-(2-thiomorpholinoethyl) piperazine dihydrochloride]
inhibition at 1 mg/kg (h-NK1 receptors): > 80%

O=C(c1cc(C(F)(F)F)cc(C(F)(F)F)c1)N1CCN(CCCN2CCSCC2)C[C@H]1Cc1ccc(Cl)c(Cl)c1 [Example 44-(4), (2R)-1-[3,5-Bis(trifluoromethyl)benzoyl]-2-(3,4-dichlorobenzyl) -4-(3-thiomorpholinopropyl) piperazine dihydrochloride]
inhibition at 1 mg/kg (h-NK1 receptors): > 80%

O=C(c1cc(C(F)(F)F)cc(C(F)(F)F)c1)N1CCN(CCCN2CCOCC2)C[C@H]1Cc1ccc(Cl)c(Cl)c1 [Example 44-(5), (2R)-1-[3,5-Bis(trifluoromethyl)benzoyl]-2-(3,4-dichlorobenzyl)-4-(3-morpholinopropyl) piperazine dihydrochloride]
inhibition at 1 mg/kg (h-NK1 receptors): > 80%

O=C(c1cc(C(F)(F)F)cc(C(F)(F)F)c1)N1CCN(CCCN2CCSC2)C[C@H]1Cc1c[nH]c2ccccc12 [Example 44-(7), (2R)-4-[3-(Thiazolidin-3-yl)propyl]-1-[3,5-bis (trifluoromethyl)benzoyl]-2-(1H-indol-3-ylmethyl) piperazine dihydrochloride]
inhibition at 1 mg/kg (h-NK1 receptors): > 80%

O=C(c1cc(C(F)(F)F)cc(C(F)(F)F)c1)N1CCN(CCCN2CCC(c3ccccc3)CC2)C[C@H]1Cc1c[nH]c2ccccc12 [Example 46, (2R)-1-[3,5-bis(trifluoromethyl)benzoyl]-2-(1H-indol-3-ylmethyl)-4-[3-(4-phenylpiperidino)propyl]piperazine]
inhibition at 1 mg/kg (h-NK1 receptors): > 80%

O=C(c1cc(C(F)(F)F)cc(C(F)(F)F)c1)N1CCN(CCO)C[C@H]1Cc1ccc(Cl)c(Cl)c1 [Example 47, (2R)-2-(3,4-dichlorobenzyl)-1-[3,5-bis(trifluoromethyl)benzoyl]-4-(2-hydroxyethyl) piperazine hydrochloride]
inhibition at 1 mg/kg (h-NK1 receptors): > 80%

O=C(c1cc(C(F)(F)F)cc(C(F)(F)F)c1)N1CCN(CCCCCN2CCOCC2)C[C@H]1Cc1c[nH]c2ccccc12 [Example 55, (2R)-1-[3,5-Bis(trifluoromethyl)benzoyl]-2-(1H-indol-3-ylmethyl)-4-(5-morpholinopentyl) piperazine dihydrochloride]
inhibition at 1 mg/kg (h-NK1 receptors): > 80%

Cc1ccc(C[C@@H]2CN(CCNCc3cccnc3)CCN2C(=O)c2cc(C(F)(F)F)cc(C(F)(F)F)c2)cc1C [Example 67-(5), (2R)-1-[3,5-Bis(trifluoromethyl)benzoyl]-2-(3,4-dimethylbenzyl)-4-[2-(3-pyridylmethylamino)ethyl]piperazine trihydrochloride]
inhibition at 1 mg/kg (h-NK1 receptors): > 80%

Cc1ccc(C[C@@H]2CN(CCN3CCCOCC3)CCN2C(=O)c2cc(C(F)(F)F)cc(C(F)(F)F)c2)cc1C [Example 67-(6), (2R)-1-[3,5-Bis(trifluoromethyl)benzoyl]-2-(3,4-dimethylbenzyl)-4-(2-homomorpholinoethyl) piperazine dihydrochloride]
inhibition at 1 mg/kg (h-NK1 receptors): > 80%

Cc1ccc(C[C@@H]2CN(CCCN3CCCOCC3)CCN2C(=O)c2cc(C(F)(F)F)cc(C(F)(F)F)c2)cc1C [Example 67-(7), (2R)-1-[3,5-Bis(trifluoromethyl)benzoyl]-2-(3,4-dimethylbenzyl)-4-(3-homomorpholinopropyl) piperazine dihydrochloride]
inhibition at 1 mg/kg (h-NK1 receptors): > 80%

O=C(c1cc(C(F)(F)F)cc(C(F)(F)F)c1)N1CCN(C/C=C\CN2CCOCC2)C[C@H]1Cc1c[nH]c2ccccc12 [Example 71, (2R) -1-[3,5-bis(trifluoromethyl)benzoyl]-2-(1H-indol-3-ylmethyl)-4-[(Z)-4-morpholino-2-butenyl]piperazine dihydrochloride]
inhibition at 1 mg/kg (h-NK1 receptors): > 80%

O=C(c1cc(C(F)(F)F)cc(C(F)(F)F)c1)N1CCN(CCCCN2CCOCC2)C[C@H]1Cc1c[nH]c2ccccc12 [Example 73, (2R)-1-[3,5-bis(trifluoromethyl)benzoyl]-2-(1H-indol-3-ylmethyl)-4-(4-morpholinobutyl) piperazine dihydrochloride]
inhibition at 1 mg/kg (h-NK1 receptors): > 80%

Cc1ccc(C[C@@H]2CN(CCCN3C[C@@H](C)O[C@@H](C)C3)CCN2C(=O)c2cc(C(F)(F)F)cc(C(F)(F)F)c2)cc1C [Example 81, (2R)-1-[3,5-Bis(trifluoromethyl)benzoyl]-2-(3,4-dimethylbenzyl)-4-[3-(cis-2,6-dimethylmorpholino)propyl]piperazine dihydrochloride]
inhibition at 1 mg/kg (h-NK1 receptors): > 80%
